Measurements: patent US20220160651A1, “RAPIDLY IMPROVING ENDOTHELIAL FUNCTION, REDUCING ARTERIAL STIFFNESS AND REVERSING CALCIFICATION OF BLOOD VESSELS BY ADMINISTERING VITAMIN K” (KAYDENCE PHARMA AS, priority 2019, published 2022)

System: kidney transplantation patients
Test: Clinical study: non-invasive pulse wave velocity measurement of arterial stiffness
Format: in vivo, human
Settings: 360 ug/day, after 8 weeks of treatment, kidney transplant patients
Protocol: Clinical Study to study the efficacy and safety of Vitamin K2 supplementation on arterial stiffness, the rigidity of arterial walls, in kidney transplantation patients.
A clinical study was carried out. Arterial wall property measurements were taken at t=0 and t=8 weeks and show a dramatic improvement in arterial wall flexibility. This is good support for concluding that the ingestion of vitamin K, even over this short period, is an effective way of improving endothelial function, reducing arterial stiffness and reducing calcification. […] It is surprising and unexpected because calcification is a slow progressive process and it was thought that reversing this process would also be slow and progressive.
Participants were enrolled in a clinical trial in which the effects of vitamin K2 were determined for patients who had recently undergone a kidney transplant. At the beginning of the study, patients were subjected to a non-invasive pulse wave velocity measurement to measure arterial stiffness/flexibility, as well as blood analysis. The study participants were then instructed to receive a specific daily dose of MenaQ7 vitamin K2 menaquinone-7 (360 ug/day) for a total of 8 weeks. At the end of 8 weeks, patients were again examined with a follow-up examination, a non-invasive pulse wave velocity measurement and blood analysis and drug treatment was discontinued.

CC(C)=CCC/C(C)=C/CC/C(C)=C/CC/C(C)=C/CC/C(C)=C/CC/C(C)=C/CC/C(C)=C/CC1=C(C)C(=O)c2ccccc2C1=O [MK-7, menaquinone-7]
mean reduction in measured pulse-wave velocity: 30%
